Reference: patent US9796985B2, “Compositions and method for modulating the sensitivity of plants to cytokinin” (Trustees of Dartmouth College, priority 2013, dated 2017)
Where a SMILES comes first, the peptide text is derived from it. The star is where a group is joined. Cbz = O=C(OCc1ccccc1)*

Columns and labels:
proteasome = assay: Role of the proteasome in ARR stability, immunoblot of protoplasts; type: cell-based, Arabidopsis; details: 10 μM MG132, 3 hours
ARR7 and ARR15 = details: wild-type plants, one hour treatment with 100 nM t-zeatin, qRT-PCR
Description: (§1) Cytokinin Growth and Molecular Response Analyses. Hypocotyl and root growth analyses were performed according to known methods (Argyros, et al. (2008) Plant Cell 20(8):2102-2116) and hypocotyl and root lengths were measured using ImageJ software (version 1.32; National Institutes of Health). Root meristem size was determined via established methods (Perilli & Sabatini (2010) Methods Mol. Biol. 655:177-187). The apical meristem was visualized by bright field microscopy, with tissue sectioning, fixation, and staining performed according to known methods (Chiang, et al. (2012) Plant Physiol. 160(1):332-348). Total RNA isolation, cDNA production, and quantitative RT-PCR (qRT-PCR) were performed via established methods (Argyros, et al. (2008) supra). Transcript abundances were calculated using the comparative CT method, with 13-TUB3 (At5g62700) as the normalized control.
(§2) Plant Growth Conditions and Cytokinin Treatment. Seeds were surface-sterilized and cold-treated for 3 days in the dark at 4° C. to ensure uniform germination before being moved into the light. For molecular and physiological assays, seedlings were grown on medium containing 1× Murashige and Skoog (MS) salts with vitamins (Research Products International Corp.), 1% sucrose, and 0.8% phytoagar (Research Products International Corp.) at 22° C. under continuous white light (50 μE·m^−2·s^−1) unless specified otherwise. […]

[1] = system: dark-grown, wild-type seedlings; details: increasing concentrations of t-zeatin
Description: as §1, §2

Row | Structure (SMILES) | protein level of ARR1 (proteasome; protoplasts from ARR1-HA overexpression line) | protein level of ARR12 (proteasome; protoplasts from ARR12-Myc overexpression line) | induction of ARR7 and ARR15 expression (ARR7 and ARR15) | hypocotyl elongation [1]
1 | CC(C)C[C@@H](C=O)NC(=O)[C@H](CC(C)C)NC(=O)[C@H](CC(C)C)NC(=O)OCc1ccccc1 [MG132] (Cbz-Leu-Leu-Leu-aldehyde) | increased | increased | – | –
2 | C/C(=C\CNc1ncnc2[nH]cnc12)CO [t-zeatin, 6-(4-hydroxy-3methylbut-trans-2-enylamino) purine] | – | – | two- to four-fold | inhibition of hypocotyl elongation
